Laboratory results reported in PubChem BioAssay AID2060500 (Molecular Pharmacology Branch, DTP, NCI, 2025).

Tested on: 596521-263-R-J1-PDC complex spheroids, viability % of control
Test: Anticancer human tumor 596521-263-R-J1-PDC patient-derived soft tissue sarcoma cell line growth inhibition [GQUAD]
Details: for IC50: curve of first compound; for viability, T/C: stronger effect = lower value; active = viability on the fitted dose curve at most 10% of control; inactive = the rest
Outline: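 Multi-cell-type spheroids of tumor cells with HUVEC and mesenchymal stem cells, treated with drug combinations. Concentrations descend in half-log steps from near clinical Cmax, or from 10 microM where Cmax is unknown; viability read-out.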

[1] = second compound 0.0316 µM, first compound 0.0316 µM
[2] = second compound 0.0316 µM, first compound 0.1 µM
[3] = second compound 0.0316 µM, first compound 0.316 µM
[4] = second compound 0.0316 µM, first compound 1 µM
[5] = second compound 0.0316 µM, first compound 3.16 µM
[6] = second compound 0.0316 µM, first compound 10 µM
[7] = second compound 0.1 µM, first compound 0.0316 µM
[8] = second compound 0.1 µM, first compound 0.1 µM
[9] = second compound 0.1 µM, first compound 0.316 µM
[10] = second compound 0.1 µM, first compound 1 µM
[11] = second compound 0.1 µM, first compound 3.16 µM
[12] = second compound 0.1 µM, first compound 10 µM
[13] = second compound 0.316 µM, first compound 0.0316 µM
[14] = second compound 0.316 µM, first compound 0.1 µM
[15] = second compound 0.316 µM, first compound 0.316 µM
[16] = second compound 0.316 µM, first compound 1 µM
[17] = second compound 0.316 µM, first compound 3.16 µM
[18] = second compound 0.316 µM, first compound 10 µM
[19] = second compound 1 µM, first compound 0.0316 µM
[20] = second compound 1 µM, first compound 0.1 µM
[21] = second compound 1 µM, first compound 0.316 µM
[22] = second compound 1 µM, first compound 1 µM
[23] = second compound 1 µM, first compound 3.16 µM
[24] = second compound 1 µM, first compound 10 µM
[25] = second compound 3.16 µM, first compound 0.0316 µM
[26] = second compound 3.16 µM, first compound 0.1 µM
[27] = second compound 3.16 µM, first compound 0.316 µM
[28] = second compound 3.16 µM, first compound 1 µM
[29] = second compound 3.16 µM, first compound 3.16 µM
[30] = second compound 3.16 µM, first compound 10 µM
[31] = second compound 10 µM, first compound 0.0316 µM
[32] = second compound 10 µM, first compound 0.1 µM
[33] = second compound 10 µM, first compound 0.316 µM
[34] = second compound 10 µM, first compound 1 µM
[35] = second compound 10 µM, first compound 3.16 µM
[36] = second compound 10 µM, first compound 10 µM
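Note: spheroids exposed to drugs for 7 days before viability reading.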
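Throughout, for viability, T/C: 100% = DMSO vehicle control viability.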

COc1ncnc(C2CC2)c1-c1ncc2cnn(Cc3ccc(-c4nc(C(F)(F)F)cn4C(C)C)cc3)c2n1 + Cc1[nH]c2ccc(F)cc2c1-c1nc2c3cccnc3c3ncccc3c2[nH]1
active: viability, T/C [6] 2.52% | viability, T/C [12] 2.12% | viability, T/C [18] 1.85% | viability, T/C [24] 1.7% | viability, T/C [30] 2.26% | viability, T/C [36] 1.93%
inactive: viability, T/C [1] 100% | viability, T/C [2] 88.8% | viability, T/C [3] 79.6% | viability, T/C [4] 56.9% | viability, T/C [5] 33.5% | viability, T/C [7] 98.8% | viability, T/C [8] 90.4% | viability, T/C [9] 75.6% | viability, T/C [10] 67% | viability, T/C [11] 27.1% | viability, T/C [13] 85.8% | viability, T/C [14] 95.4% | viability, T/C [15] 80.3% | viability, T/C [16] 49.7% | viability, T/C [17] 27.8% | viability, T/C [19] 87.2% | viability, T/C [20] 78.8% | viability, T/C [21] 75% | viability, T/C [22] 49.9% | viability, T/C [23] 31.1% | viability, T/C [25] 84.9% | viability, T/C [26] 95.3% | viability, T/C [27] 68.5% | viability, T/C [28] 53.9% | viability, T/C [29] 29.4% | viability, T/C [31] 95.4% | viability, T/C [32] 76.7% | viability, T/C [33] 71.3% | viability, T/C [34] 54.6% | viability, T/C [35] 20.6%
1500 nM: IC50 (second compound 0.1 µM)
991 nM: IC50 (second compound 10 µM)
1200 nM: IC50 (second compound 3.16 µM)
1460 nM: IC50 (second compound 0.0316 µM)
1190 nM: IC50 (second compound 0.316 µM) | IC50 (second compound 1 µM)

O=C(c1cc(Cc2n[nH]c(=O)c3ccccc23)ccc1F)N1CCN(C(=O)C2CC2)CC1 + Cc1cnc(CNC(=O)c2c(=O)c3ccc(N4CCCN(C)CC4)nc3n3c2sc2ccccc23)cn1
inactive: viability, T/C [1] 92% | viability, T/C [2] 91% | viability, T/C [3] 96% | viability, T/C [4] 80.2% | viability, T/C [5] 81.4% | viability, T/C [6] 68.9% | viability, T/C [7] 86.3% | viability, T/C [8] 80.6% | viability, T/C [9] 82.8% | viability, T/C [10] 70.3% | viability, T/C [11] 71.4% | viability, T/C [12] 56.4% | viability, T/C [13] 71.8% | viability, T/C [14] 77.9% | viability, T/C [15] 73.4% | viability, T/C [16] 78.1% | viability, T/C [17] 73.3% | viability, T/C [18] 58.1% | viability, T/C [19] 68.2% | viability, T/C [20] 64.2% | viability, T/C [21] 59.4% | viability, T/C [22] 64.3% | viability, T/C [23] 60.9% | viability, T/C [24] 54.1% | viability, T/C [25] 47.9% | viability, T/C [26] 50.1% | viability, T/C [27] 52.2% | viability, T/C [28] 56.8% | viability, T/C [29] 52.3% | viability, T/C [30] 48.8% | viability, T/C [31] 46.1% | viability, T/C [32] 48.4% | viability, T/C [33] 47.4% | viability, T/C [34] 46.6% | viability, T/C [35] 50.9% | viability, T/C [36] 41.8%
> 10000 nM: IC50 (second compound 0.0316 µM) | IC50 (second compound 0.1 µM) | IC50 (second compound 0.316 µM) | IC50 (second compound 1 µM)
< 31.6 nM: IC50 (second compound 3.16 µM) | IC50 (second compound 10 µM)

C=CCn1c(=O)c2cnc(Nc3ccc(N4CCN(C)CC4)cc3)nc2n1-c1cccc(C(C)(C)O)n1 + CN(C)c1ccc(Nc2c3ccc(NC(=O)CCN4CCCC4)cc3nc3cc(NC(=O)CCN4CCCC4)ccc23)cc1
484 nM: IC50 (second compound 0.316 µM)
544 nM: IC50 (second compound 0.1 µM)
760 nM: IC50 (second compound 1 µM)
308 nM: IC50 (second compound 10 µM)
inactive: viability, T/C [1] 90.4% | viability, T/C [2] 81.2% | viability, T/C [3] 53.5% | viability, T/C [4] 44.9% | viability, T/C [5] 42% | viability, T/C [6] 27.7% | viability, T/C [7] 105% | viability, T/C [8] 82.5% | viability, T/C [9] 53.9% | viability, T/C [10] 44.1% | viability, T/C [11] 45.3% | viability, T/C [12] 32.9% | viability, T/C [13] 90.5% | viability, T/C [14] 90.4% | viability, T/C [15] 54.5% | viability, T/C [16] 47.3% | viability, T/C [17] 46.1% | viability, T/C [18] 32.1% | viability, T/C [19] 86.4% | viability, T/C [20] 79.6% | viability, T/C [21] 57.1% | viability, T/C [22] 47% | viability, T/C [23] 49.4% | viability, T/C [24] 34.7% | viability, T/C [25] 100% | viability, T/C [26] 84.8% | viability, T/C [27] 63.9% | viability, T/C [28] 44.4% | viability, T/C [29] 38.2% | viability, T/C [30] 31.2% | viability, T/C [31] 66.9% | viability, T/C [32] 54.9% | viability, T/C [33] 47.3% | viability, T/C [34] 44.7% | viability, T/C [35] 34.2% | viability, T/C [36] 20.7%
644 nM: IC50 (second compound 0.0316 µM)
757 nM: IC50 (second compound 3.16 µM)
